Activity calls are given as the source filed them. The rule behind the calls is not given here.
Assays:
[1] = molecular target: T1, Casein kinase I isoform delta (Rattus norvegicus, UniProt Q06486); experiment: Inhibition of full-length rat GST-tagged CK1delta using alpha-casein as substrate after 30 mins in presence of [gamma-32P]-ATP by Cherenkov counting method
[2] = molecular target: T1, Casein kinase I isoform delta; experiment: Inhibition of rat recombinant CK1delta kinase domain using alpha-casein as substrate after 30 mins in presence of [gamma-32P]-ATP by Cherenkov counting method
[3] = molecular target: Casein kinase I isoform epsilon (Homo sapiens, UniProt P49674); experiment: Inhibition of human recombinant CK1epsilon using alpha-casein as substrate after 30 mins in presence of [gamma-32P]-ATP by Cherenkov counting method
[4] = molecular target: Casein kinase I isoform gamma-3 (Homo sapiens) (UniProt Q9Y6M4); experiment: Inhibition of human GST-tagged CK1gamma3 at 1 uM using alpha-casein as substrate after 30 mins in presence of [gamma-32P]-ATP by Cherenkov counting method
[5] = molecular target: T2, Casein kinase I isoform alpha (Bos taurus) (UniProt P67827); experiment: Inhibition of bovine GST-tagged CK1alpha at 1 uM using alpha-casein as substrate after 30 mins in presence of [gamma-32P]-ATP by Cherenkov counting method
T2 sequence (whole entry): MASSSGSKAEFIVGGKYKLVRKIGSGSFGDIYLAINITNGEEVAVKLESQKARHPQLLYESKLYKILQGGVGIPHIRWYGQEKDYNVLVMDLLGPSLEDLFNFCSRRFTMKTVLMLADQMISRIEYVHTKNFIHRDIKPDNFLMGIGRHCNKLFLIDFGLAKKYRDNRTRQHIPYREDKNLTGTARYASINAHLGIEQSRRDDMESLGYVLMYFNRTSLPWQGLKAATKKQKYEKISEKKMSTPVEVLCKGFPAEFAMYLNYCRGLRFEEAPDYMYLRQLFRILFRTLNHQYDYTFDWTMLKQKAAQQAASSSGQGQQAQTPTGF

[6] = molecular target: Casein kinase I isoform delta (Rattus norvegicus, UniProt Q06486, M82F); experiment: Inhibition of rat GST-tagged CK1delta M82F mutant at 10 uM using alpha-casein as substrate after 30 mins in presence of [gamma-32P]-ATP by Cherenkov counting method
[7] = molecular target: T3, Casein kinase I delta/epsilon (Homo sapiens) (UniProt P48730+P49674); experiment: Inhibition of CK1delta/epsilon in HEK293T cells transfected with Wnt3A-expressing vector assessed as suppression of Wnt/beta-catenin signaling up to 0.1 uM after 22 hrs by Super-top flash reporter gene assay; format: cell-based
[8] = molecular target: T3, Casein kinase I delta/epsilon (Homo sapiens); experiment: Inhibition of CK1delta/epsilon in HEK293T cells assessed as suppression of Wnt/beta-catenin signaling up to 0.1 uM after 22 hrs in presence of Wnt3A-conditioned medium by Super-top flash reporter gene assay; format: cell-based
MIA PaCa-2 = experiment: Antiproliferative activity against human MIAPaCa2 cells after 48 hrs by MTT assay; format: functional, cell-based; conditions: MIA PaCa-2, 48 h
PANC-1 = experiment: Antiproliferative activity against human PANC1 cells after 48 hrs by MTT assay; format: functional, cell-based; conditions: PANC-1, 48 h
[9] = molecular target: Casein kinase I isoform delta (Rattus norvegicus) (UniProt Q06486); experiment: Inhibition of rat recombinant CK1delta kinase domain at 10 uM using alpha-casein as substrate after 30 mins in presence of [gamma-32P]-ATP by Cherenkov counting method
[10] = Antiproliferative activity against human A818-6 cells after 48 hrs by MTT assay; format: functional, cell-based
[11] = molecular target: T2, Casein kinase I isoform alpha (Bos taurus); experiment: Inhibition of bovine GST-tagged CK1alpha at 10 uM using alpha-casein as substrate after 30 mins in presence of [gamma-32P]-ATP by Cherenkov counting method
[12] = Selectivity ratio of IC50 for human CK1epsilon to IC50 for full-length rat GST-tagged CK1delta
[13] = Antiproliferative activity against human Panc89 cells after 48 hrs by MTT assay; format: functional, cell-based
[14] = Selectivity ratio of IC50 for human CK1epsilon to IC50 for rat recombinant CK1delta kinase domain
[15] = molecular target: Casein kinase I isoform delta (Rattus norvegicus) (UniProt Q06486); experiment: Ratio of IC50 for full-length rat GST-tagged CK1delta to IC50 for rat recombinant CK1delta kinase domain
SW-620 = experiment: Antiproliferative activity against human SW620 cells after 48 hrs by MTT assay; format: functional, cell-based; conditions: SW-620, 48 h
[16] = molecular target: Casein kinase I isoform delta (Rattus norvegicus) (UniProt Q06486); experiment: Competitive inhibition of full-length rat GST-tagged CK1delta at IC50 using alpha-casein as substrate after 30 mins in presence of 10 to 500 uM ATP and [gamma-32P]-ATP by Cherenkov counting method
HT-29 = experiment: Antiproliferative activity against human HT-29 cells after 48 hrs by MTT assay; format: functional, cell-based; conditions: HT-29, 48 h
[17] = molecular target: Casein kinase I isoform gamma-3 (Homo sapiens) (UniProt Q9Y6M4); experiment: Inhibition of human GST-tagged CK1gamma3 at 10 uM using alpha-casein as substrate after 30 mins in presence of [gamma-32P]-ATP by Cherenkov counting method
CAPAN-1 = experiment: Antiproliferative activity against human Capan1 cells after 48 hrs by MTT assay; format: functional, cell-based; conditions: CAPAN-1, 48 h
Rattus norvegicus = species: Rattus norvegicus; experiment: Selectivity ratio of IC50 for full-length rat GST-tagged CK1delta to IC50 for rat GST-tagged CK1delta M82F mutant
HEK293 = experiment: Antiproliferative activity against human HEK293 cells after 48 hrs by MTT assay; format: functional, cell-based; conditions: HEK293, 48 h
[18] = molecular target: Casein kinase I isoform delta (Rattus norvegicus) (UniProt Q06486); experiment: Inhibition of full-length rat GST-tagged CK1delta at 10 uM using alpha-casein as substrate after 30 mins in presence of [gamma-32P]-ATP by Cherenkov counting method
HEK-293T [19] = experiment: Upregulation of renilla luciferase expression in HEK293T cells transfected with Wnt3A-expressing vector up to 5 uM after 22 hrs by luminescence assay relative to control; format: cell-based; conditions: human
HEK-293T [20] = experiment: Upregulation of renilla luciferase expression in HEK293T cells up to 5 uM after 22 hrs in presence of Wnt3A-conditioned medium by luminescence assay relative to control; format: cell-based; conditions: human
[21] = molecular target: T4, Protein-serine O-palmitoleoyltransferase porcupine (Homo sapiens) (UniProt Q9H237); experiment: Inhibition of porcupine in HEK293T cells transfected with Wnt3A-expressing vector assessed as suppression of Wnt/beta-catenin signaling at 5 uM after 22 hrs by Super-top flash reporter gene assay relative to control; format: cell-based
T4 sequence (whole entry): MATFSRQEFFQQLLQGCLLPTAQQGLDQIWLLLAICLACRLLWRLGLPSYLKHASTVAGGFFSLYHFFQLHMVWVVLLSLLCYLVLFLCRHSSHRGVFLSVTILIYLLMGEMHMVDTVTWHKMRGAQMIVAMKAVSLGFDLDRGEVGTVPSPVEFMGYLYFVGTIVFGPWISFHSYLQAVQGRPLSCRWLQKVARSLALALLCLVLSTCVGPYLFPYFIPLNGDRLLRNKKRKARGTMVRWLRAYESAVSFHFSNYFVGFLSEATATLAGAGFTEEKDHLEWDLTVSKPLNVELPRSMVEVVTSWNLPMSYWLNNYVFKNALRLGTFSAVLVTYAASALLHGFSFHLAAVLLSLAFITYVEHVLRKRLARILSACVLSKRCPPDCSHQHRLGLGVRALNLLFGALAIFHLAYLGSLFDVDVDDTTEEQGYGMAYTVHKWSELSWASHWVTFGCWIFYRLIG

Homo sapiens = species: Homo sapiens; experiment: Inhibition of Wnt/beta-catenin signaling in HEK293T cells after 22 hrs in presence of Wnt3A-conditioned medium by Super-top flash reporter gene assay; format: cell-based
[22] = molecular target: T5, Protein-serine O-palmitoleoyltransferase porcupine (Homo sapiens, UniProt Q9H237); experiment: Inhibition of porcupine in HEK293T cells transfected with Wnt3A-expressing vector assessed as suppression of Wnt/beta-catenin signaling after 22 hrs by Super-top flash reporter gene assay; format: cell-based
T5 sequence (Q9H237 whole entry): T4 sequence (whole entry)

[23] = molecular target: T6, Casein kinase I isoform delta (Homo sapiens, UniProt P48730); experiment: Inhibition of CK1delta isolated from human PANC1 cells at 5 uM using GST-tagged p53 (1 to 64 residues) as substrate after 30 mins in presence of [gamma-32P]-ATP by Cherenkov counting method
[24] = molecular target: T6, Casein kinase I isoform delta; conditions: 125 uM
[25] = molecular target: Casein kinase I isoform delta (Rattus norvegicus) (UniProt Q06486); experiment: Inhibition of full-length rat GST-tagged CK1delta assessed as residual activity at 10 uM using alpha-casein as substrate after 30 mins in presence of [gamma-32P]-ATP by Cherenkov counting method
[26] = molecular target: Casein kinase I isoform delta (Rattus norvegicus) (UniProt Q06486); experiment: Inhibition of rat recombinant CK1delta kinase domain assessed as residual activity at 10 uM using alpha-casein as substrate after 30 mins in presence of [gamma-32P]-ATP by Cherenkov counting method

Chain of Casein kinase I isoform epsilon (P49674 whole entry, canonical isoform): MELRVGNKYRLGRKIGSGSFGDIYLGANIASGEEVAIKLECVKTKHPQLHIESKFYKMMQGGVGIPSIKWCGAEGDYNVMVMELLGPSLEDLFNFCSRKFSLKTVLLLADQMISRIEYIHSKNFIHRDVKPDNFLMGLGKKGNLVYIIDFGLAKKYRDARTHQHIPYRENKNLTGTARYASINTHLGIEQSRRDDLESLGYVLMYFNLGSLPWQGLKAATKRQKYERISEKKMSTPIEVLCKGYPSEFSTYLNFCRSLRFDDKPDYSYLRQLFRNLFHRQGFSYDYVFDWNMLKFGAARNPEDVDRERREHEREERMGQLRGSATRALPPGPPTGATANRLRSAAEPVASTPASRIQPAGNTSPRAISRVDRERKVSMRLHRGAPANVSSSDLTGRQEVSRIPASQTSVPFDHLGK
Chain of Casein kinase I isoform gamma-3 (Homo sapiens) (Q9Y6M4 whole entry, looked up, canonical isoform): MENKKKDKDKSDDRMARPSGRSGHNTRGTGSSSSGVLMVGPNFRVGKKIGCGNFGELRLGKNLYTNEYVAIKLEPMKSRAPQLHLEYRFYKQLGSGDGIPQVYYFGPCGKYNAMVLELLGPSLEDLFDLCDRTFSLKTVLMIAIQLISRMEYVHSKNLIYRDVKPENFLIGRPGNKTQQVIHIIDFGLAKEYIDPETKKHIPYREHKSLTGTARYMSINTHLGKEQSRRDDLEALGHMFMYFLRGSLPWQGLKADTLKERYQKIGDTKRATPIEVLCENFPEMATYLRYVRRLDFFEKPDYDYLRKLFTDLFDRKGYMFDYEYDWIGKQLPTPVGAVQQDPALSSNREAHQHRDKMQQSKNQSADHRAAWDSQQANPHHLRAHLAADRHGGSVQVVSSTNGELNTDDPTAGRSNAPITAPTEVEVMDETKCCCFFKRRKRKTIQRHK
Chain of Casein kinase I isoform delta (Rattus norvegicus) (Q06486 whole entry, looked up, the tested form may be a part, canonical isoform): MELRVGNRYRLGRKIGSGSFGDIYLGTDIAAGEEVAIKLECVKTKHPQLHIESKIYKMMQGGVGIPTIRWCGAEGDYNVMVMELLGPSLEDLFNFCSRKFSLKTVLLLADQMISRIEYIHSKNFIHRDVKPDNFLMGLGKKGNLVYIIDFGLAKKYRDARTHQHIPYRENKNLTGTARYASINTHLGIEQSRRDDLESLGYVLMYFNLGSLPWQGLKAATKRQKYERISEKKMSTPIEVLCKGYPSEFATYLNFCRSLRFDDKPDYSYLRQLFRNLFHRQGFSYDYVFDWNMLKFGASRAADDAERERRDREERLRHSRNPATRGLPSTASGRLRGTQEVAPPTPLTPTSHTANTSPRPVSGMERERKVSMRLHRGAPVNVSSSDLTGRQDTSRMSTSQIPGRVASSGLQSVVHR
T1 sequence (Q06486 whole entry, the tested form may be a part, canonical isoform): as the sequence (Q06486 whole entry, looked up, the tested form may be a part, canonical isoform) above
Chain of Casein kinase I isoform delta (Rattus norvegicus, UniProt Q06486, M82F) (Q06486 whole entry M82F, canonical isoform): as the sequence (Q06486 whole entry, looked up, the tested form may be a part, canonical isoform) above, with M82F counted along it
T6 sequence (P48730 whole entry, looked up, the tested form may be a part, canonical isoform): as the sequence (Q06486 whole entry, looked up, the tested form may be a part, canonical isoform) above, with V381I counted along it
T3 sequence (P48730 whole entry, looked up): as the sequence (Q06486 whole entry, looked up, the tested form may be a part, canonical isoform) above, with V381I counted along it
T3 sequence (P49674 whole entry, looked up): as the sequence (P49674 whole entry, canonical isoform) above

## COc1cccc(Cn2c(SCC(=O)Nc3nc4ccc(C(F)(F)F)cc4s3)nc3c(c2=O)SCC3)c1OC
[1]
  IC50: 760 nM
[2]
  IC50: 230 nM
[3]
  IC50: 1230 nM
[4]
  inhibition: Active
[5]
  inhibition: Active
[6]
  IC50: 210 nM

## O=C(CSc1nc2c(c(=O)n1Cc1ccc(C(F)(F)F)cc1)SCC2)Nc1nc2ccc(C(F)(F)F)cc2s1
[1]
  IC50: 330 nM
[4]
  inhibition: Active
[5]
  inhibition: Active

## O=C(CSc1nc2c(c(=O)n1-c1ccccc1)SCC2)Nc1nc2ccc(C(F)(F)F)cc2s1
[1]
  IC50: 660 nM
[2]
  IC50: 400 nM
[3]
  IC50: 4120 nM
[4]
  inhibition: Active
[5]
  inhibition: Active
[6]
  IC50: 210 nM

## Fc1cccc(-n2cnc3c(NCc4nc5c(F)c(F)ccc5[nH]4)nc(N4CCOCC4)nc32)c1
[7]
  inhibition: Dose-dependent effect
[8]
  inhibition: Dose-dependent effect

## O=C(CSc1nc2c(c(=O)n1Cc1ccccc1)SCC2)Nc1nc2ccc(C(F)(F)F)cc2s1
[1]
  IC50: 1060 nM
[2]
  IC50: 520 nM
[3]
  IC50: 1410 nM
[4]
  inhibition: Active
[5]
  inhibition: Active
[6]
  IC50: 270 nM

## Cc1ccc2nc(NC(=O)CSc3nc4c(c(=O)n3Cc3ccccc3)SCC4)sc2c1
[1]
  IC50: 1660 nM
MIA PaCa-2
  EC50: 5650 nM
PANC-1
  EC50: > 10000 nM
[2]
  IC50: 420 nM
[9]
  inhibition: Active
[3]
  IC50: 7340 nM
[10]
  EC50: > 10000 nM
[11]
  inhibition: inactive
[12]
  Ratio IC50: 4 to 7
[13]
  EC50: 3100 nM
[14]
  Ratio IC50: < 17
[15]
  Ratio IC50: 4
SW-620
  EC50: 8520 nM
[16]
  inhibition: Active
HT-29
  EC50: > 10000 nM
[17]
  inhibition: Active
CAPAN-1
  EC50: > 10000 nM
Rattus norvegicus
  Ratio IC50: 28
[6]
  IC50: 60 nM
HEK293
  EC50: > 10000 nM
[18]
  inhibition: Active

## Cc1ccc2nc(NC(=O)CSc3nc4c(c(=O)n3-c3ccc(F)cc3)SCC4)sc2c1
[1]
  IC50: 1890 nM
MIA PaCa-2
  EC50: 5340 nM
PANC-1
  EC50: 4870 nM
[2]
  IC50: 550 nM
[9]
  inhibition: Active
[3]
  IC50: > 10000 nM
[10]
  EC50: > 10000 nM
[11]
  inhibition: inactive
[12]
  Ratio IC50: 4 to 7
[13]
  EC50: 5070 nM
[14]
  Ratio IC50: < 17
[15]
  Ratio IC50: 4
SW-620
  EC50: 8620 nM
HT-29
  EC50: > 10000 nM
[17]
  inhibition: Active
CAPAN-1
  EC50: > 10000 nM
[6]
  IC50: 150 nM
HEK293
  EC50: 3500 nM
[18]
  inhibition: Active

## Cc1cc(-c2ccc(CC(=O)Nc3ccc(-c4cccnc4)cc3)cc2)ccn1
HEK-293T [19]
  fold change (FC): <= 1.3
HEK-293T [20]
  fold change (FC): <= 1.5
[21]
  Imax: 1.1%
Homo sapiens
  inhibition: inactive
[22]
  IC50: < 1 nM

## COc1cc(OC)c(/C=C2/C(=O)Nc3ccccc32)c(OC)c1
[23]
  inhibition: 40%

## Nc1nccc(-c2c(-c3ccc(F)cc3)ncn2C2CCCCC2)n1
[24]
  inhibition: 40%

## COc1ccccc1-n1c(SCC(=O)Nc2nc3ccc(C)cc3s2)nc2c(c1=O)SCC2
[1]
  IC50: 1060 nM
MIA PaCa-2
  EC50: 230 nM
PANC-1
  EC50: 230 nM
[2]
  IC50: 1020 nM
[3]
  IC50: 7070 nM
[10]
  EC50: 930 nM
[12]
  Ratio IC50: 4 to 7
[13]
  EC50: 580 nM
[14]
  Ratio IC50: < 17
SW-620
  EC50: 230 nM
HT-29
  EC50: 340 nM
CAPAN-1
  EC50: 230 nM
[6]
  IC50: 140 nM
[25]
  Activity: 25%
HEK293
  EC50: 280 nM
[26]
  Activity: 22%

## O=C(CSc1nc2c(c(=O)n1Cc1ccc(OC(F)(F)F)cc1)SCC2)Nc1nc2ccc(C(F)(F)F)cc2s1
[1]
  IC50: 700 nM
[4]
  inhibition: Active
[5]
  inhibition: Active

## O=C(CSc1nc2c(c(=O)n1Cc1cccc(C(F)(F)F)c1)SCC2)Nc1nc2ccc(C(F)(F)F)cc2s1
[1]
  IC50: 1030 nM
[4]
  inhibition: Active
[5]
  inhibition: Active

Reference: ChEMBL document CHEMBL4184315, “Discovery of Inhibitor of Wnt Production 2 (IWP-2) and Related Compounds As Selective ATP-Competitive Inhibitors of Casein Kinase 1 (CK1) δ/ε” (J Med Chem, 2018)
